Laboratory results published in patent US20020168389A1, “Stable skin conditioning compositions containing retinoid boosters” (priority 2000, published 2002).

What was measured:
TGase I = test: Transglutaminase (TGase I ELISA) assay in cultured keratinocytes with retinol; format: cell-based; details: Keratinocyte, read-out: Overall TG (IC 50)
Retinal Reductase = test: Assay for Retinal Reductase Activity, rat liver microsomes (to identify B3); format: biochemical; details: test compound final 100 μM
Protocol: The resulting homogenate was successively centrifuged for 30 min. at 10,000 g, 30 min. at 20,000 g, and 15 min. at 30,000 g, and the resulting supernatant was ultracentrifuged for 80 min. at 105,000 g. […] Protein concentrations were determined as described above. […] All stock solution were prepared as above with the following substitutions: 10 mM all trans Retinaldehyde (Sigma R2500) in DMSO—instead of retinol. 200 mM, Nicotinamide adenine dinucleotide phosphate, reduced form, tetrasodium salt (NADPH) (Sigma N7505) in sterile water—instead of NADP. In a two-dram glass vial with screw cap, add the following in order: […] 25 μl diluted Microsomes (final=100 μg)—use boiled Microsomes for controls and regular Microsomes for test samples. […] 3 μl of 10 mM retinaldehyde (final=75 μM) Follow the same incubation and extraction procedure as detailed above. […] Aliquots of 60 μL were injected immediately and analyzed for retinoid content. The chromatography instrumentation consisted of a Waters 600 gradient controller/pump, a Waters 996 Photodiode Array detector and a Waters 474 Scanning Fluorescence detector. Two HPLC protocols were used for retinoid analysis. […] The eluate was monitored for absorbance at 325 nm and fluorescence at 325 ex/480 em. […] B. Barua, “Analysis of Water-Soluble Compounds: Glucuronides”, Methods Enzymol. 189, 136-145 (1990). […] These protocols were selected based on their ability to clearly resolve pertinent retinoid acids, alcohols, aldehydes, and/or esters for each assay and relative quickness of separation. Identification of individual retinoids by HPLC was based on an exact match of the retention time of unknown peaks with that of available authentic retinoid standards and UV spectra analysis (300-400 nm) of unknown peaks against available authentic retinoids.

Retinol Dehydrogenase = test: Assay for Retinol Dehydrogenase Activity, rat liver microsomes (to identify B2); format: biochemical; details: ranking among B2 compounds
Protocol: The resulting homogenate was successively centrifuged for 30 min. at 10,000 g, 30 min. at 20,000 g, and 15 min. at 30,000 g, and the resulting supernatant was ultracentrifuged for 80 min. at 105,000 g. […] Protein concentrations were determined as described above.
2.4 Assay for Retinol Dehydrogenase Activity (To identify B2)
The following stock solutions were prepared:
50 mM KH2PO4, pH 7.4 buffer, sterile filtered.
10 mM all trans Retinol (Sigma R7632) in DMSO.
200 mM Nicotinamide adenine dinucleotide phosphate, sodium salt (NADP) (Sigma N0505) in sterile water.
40 mM test compound in appropriate solvent (water, buffer, ethanol, chloroform or DMSO).
1:10 dilution of rat liver Microsomes in 50 mM KH2PO4, pH 7.4 buffer (4 ug/ul).
In a two-dram glass vial with screw cap, add the following in order:
Buffer to give a final volume of 400 μl
25 μl diluted Microsomes (final=100 μg)−use boiled Microsomes for controls and regular Microsomes for test samples.
4 μl of 200 mM NADP (final=2 mM)
1 μl of 40 mM test compound (final=100 μM)
8 μl of 10 mM retinol (final=200 μM) […]
Aliquots of 60 μL were injected immediately and analyzed for retinoid content.
The chromatography instrumentation consisted of a Waters 600 gradient controller/pump, a Waters 996 Photodiode Array detector and a Waters 474 Scanning Fluorescence detector. […] The eluate was monitored for absorbance at 325 nm and fluorescence at 325 ex/480 em. […]

Molecule	% lnhibition Retinal Reductase (Retinal Reductase) [%]	also measured
Oc1cccc2cccnc12 [Hydroxyquinoline, Hydroxyquinoline (Carbostyril)]		IC50 (TGase I): 364 µM
CCCCCCCCCCCCCC(=O)O [Myristic Acid]	26	
Phosphatidyl Choline		activity as activator of Retinol Dehydrogenase (in words) (Retinol Dehydrogenase): Most preferred as most active activator of

Further lines, with some results ahead:

% lnhibition Retinal Reductase (Retinal Reductase) [%]	Molecule	also measured
6	COc1cc(C=O)ccc1O [Vanillin]	
37	Phosphatidyl ethanolamine	
